US6686445B1, “Synthetic antineoplastic agents derived from dolastatin 15 and methods of making same” (Arizona Board of Regents, acting for and on behalf of …, priority 1997, dated 2004)
Like-named read-outs stand apart in the source and are kept apart here. Where a SMILES comes first, the peptide text is derived from it. [ ]: non-standard residue; d: D form. The star is where a group is joined. X1 = COC1=CC(=O)N(C(=O)[C@@H](O*)C(C)C)[C@H]1Cc1ccccc1; NMe2Val = CC(C)[C@@H](C(=O)*)N(C)C; NMeV = CN[C@H](C(=O)O)C(C)C

Columns and labels:
[1] = test system: murine P388 lymphocytic leukemia cells; experiment: growth inhibition of murine P388 lymphocytic leukemia cells; assay type: cell-based; settings: dosage inhibiting tumor cell growth by 50%
Method: (§1) All compounds synthesized were first evaluated for in vitro antitumor activity against murine P388 lymphocytic leukemia cells and against murine L1210 leukemia cells and human CA46 Burkitt lymphoma cells using techniques described by Hamel & Lin (see: HAMEL, E., and LIN, C. M., […], Interaction of combretastatin, a new plant-derived antimitotic agent, with tubulin, Biochemical Pharmacology, 32, 3864). The compounds were also evaluated in the NCI's human tumor 60-cell-line in intro primary screen as described by Monks et al. (see: MONKS, A., SCUDIERO, et al., 1991, New colorimetric cytotoxicity assay for anticancer drug screening, Journal of the National Cancer Institute, 83, 757). Data analyses were performed using methods described by Boyd and Paull (see: BOYD, M. R., et al., 1995, Some practical considerations and applications of the National Cancer Institute in vitro anticancer drug discovery screen, Drug Development Research, 34, 91). A tubulin polymerization inhibition assay was performed according to a modified version of the procedure used previously and described by Muzaffar et al. (see: MUZAFFAR, A., et al., 1990, Antitubulin effects of derivatives of 3-demethylthiocolchicine, methylthio esters of natural colchicinoids, and thioketones derived from thiocolchicine, Comparison with colchicine, Journal of Medicinal Chemistry, 33, 567) to evaluate the effects of dolastatin 15 on cellular microtubule assembly. The new assay for these compounds employed a drug-tubulin preincubation (15 min.) with 10 μM tubulin in 0.8 M glutamate at 30° C., followed by addition of GTP and incubation (20 min.) at 30° C., with tubulin polymerization monitored turbidimetrically in GILFORD recording spectrophotometers.

[2] = test system: NCI 60-cell-line in vitro human tumor panel; settings: read-out: Mean Panel GI50; mean ± S.D. of triplicate tests (* duplicate)
Method: as §1

[3] = test system: human CA46 Burkitt lymphoma cells; settings: read-out: Human CA46 Burkitt Lymphoma IC50; cells counted after 20 hours
Method: as §1

[4] = test system: murine L1210 leukemia cells; settings: read-out: Mouse Leukemia L1210 IC50; cells counted after 24 hours of growth
Method: as §1

[5] = test system: human CA46 Burkitt lymphoma cells; experiment: mitotic arrest in drug-treated CA46 Burkitt cells; assay type: cell-based; settings: 80 nM drug for 20 hours, control cells 3% mitotic
Method: To further verify the assumption that this entire series of compounds is acting intracellularly by interfering with tubulin function, the drug-treated Burkitt cells for mitotic arrest were analyzed.

tubulin [6] = experiment: tubulin polymerization inhibition, 0.8 M glutamate at 30° C.; assay type: biochemical; settings: read-out: tubulin assembly IC50
Method: as §1
Since these high molecular weight polymers, like microtubules, scatter light, they make it impossible to quantify drug effects by turbidimetry or centrifugation. […] (no MgCl2 added to reactions).

Erwinia carotovora = experiment: antimicrobial disk susceptibility test; assay type: cell-based; settings: twofold dilutions
Method: Antimicrobial disk susceptibility tests were performed according to the method established by the National Committee for Clinical Laboratory Standards (NCCLS, 1997). MUELLER-HINTON agar was used for susceptibility testing of Staphylococcus aureus, Enterococcus faecalis, Micrococcus luteus, Escherichia coli, Enterobacter cloacae, Bacillus subtilis, Pseudomonas aeruginosa, and Erwinia carotovora, Gonococcal Typing agar for Neisseria gonorrhoeae, and YM agar for Candida albicans and Cryptococcus neoformans. Immediately prior to susceptibility assays, compounds were reconstituted in sterile DMSO and twofold dilutions applied to sterile 6-mm disks. Zones of inhibition were read at 16 hours for bacterial cultures (except for M. luteus) and 42 hours for fungal cultures and M. luteus. MIC determinations were performed in duplicate.

tubulin [7] = settings: read-out: tubulin polymerization IC50 (new experiments); 1 M monosodium glutamate-1 mM MgCl2; maximum concentration used 40 μM
tubulin [8] = settings: cited from earlier work

Compound: COC1=CC(=O)N(C(=O)[C@@H](OC(=O)[C@@H]2CCCN2C(=O)[C@@H]2CCCN2C(=O)[C@H](C(C)C)N(C)C(=O)[C@@H](NC(=O)[C@H](C(C)C)N(C)C)C(C)C)C(C)C)[C@H]1Cc1ccccc1 [Compound 1, dolastatin 15] (NMe2Val-V[NMeV]PP-X1)
- Mouse Leukemia P388 ED50 [1]: 2.4 ng/mL
- GI50 [2]: 1.12 ± 0.5 nM
- IC50 [3]: 2 nM
- IC50 [4]: 4 nM
- % Mitotic Cells [5]: 31%
- IC50 (tubulin [6]): 5200 nM
- Minimum inhibitory concentration, Erwinia carotovora (Erwinia carotovora): 3.12-6.25 μg/disk
- IC50 (tubulin [7]): 19000 ± 300 nM
- IC50 (tubulin [8]; read-out: tubulin polymerization IC50 (Bai et al. 1992), 10 μM tubulin, 1 M monosodium glutamate-1 mM MgCl2, 20 min at 37° C.): 23000 nM
- interaction with purified tubulin weaker than that of dolastatin 10 (tubulin [8]; relative to dolastatin 10): about 20 fold
